Laboratory results taken from PMC6934949, “Calixmexitil: Calixarene-based Cluster of Mexiletine with Amplified Anti-myotonic Activity as A Novel Use-dependent Sodium Channel Blocker” (Iranian Journal of Pharmaceutical Research : IJPR, 2019).

System: T1, sodium channel (voltage-gated, skeletal muscle)
T1 construct: gene scn4a; native channel in single semitendinosus muscle fibers
Test: three vaseline gap voltage clamp of Na+ current, phasic ([…] Hz use-dependent) block
Assay type: cell-based
Settings: read-out: Phasic block IC 50

Row | Compound | IC50 [µM]
1 | Cc1cccc(C)c1OCC(C)N (racemic) [Mexiletine, 1-(2,6-dimethylphenoxy)-2-propanamine] | 31
2 | CC(N)COc1c2cccc1Cc1cccc(c1OCC(C)N)Cc1cccc(c1OCC(C)N)Cc1cccc(c1OCC(C)N)C2 (centres unmarked) [compound 4, Calixmexitil] | 3
